The test system of this experiment is Dbp gene expression in whole blood. Put plainly: Dbp mRNA in whole blood of db/db mice. The format is in vivo, mouse. As to conditions: 100 mg/kg PO once daily for three days at ZT0, sampled ZT7.5. The method, then:
For whole blood RNA studies, male db/db mice (9 weeks of age, The Jackson Laboratory, Bar Harbor, Me.) were used for the experiment with n=8 mice for each experimental group. […] On the final day at ZT7.5 (2:30 pm), animals were euthanized using CO2 asphyxiation, and the blood collected from the heart via cardiac puncture. The blood was placed in RNALater solution to 1.5 ml total volume. Total RNA was prepared using an Ambion Mouse RiboPure Blood RNA Isolation Kit AM1951 as follows. Samples were centrifuged for 3 minutes, discarding the supernatant. Two ml of lysis solution was added and vortexed, transferred to a 15 ml tube followed by the addition of […]. Lysis buffer was added to a total volume of 3.8 ml and vortexed. The sample mixture was extracted with 1.5 ml Acid Phenol: Chloroform and the aqueous phase was recovered. After adding 0.5 volumes of 100% ethanol and vortexing, the samples were passed through a filter column provided in the kit and washed with 750 microliters of wash buffer 1. The filter was washed with 2 passes of 750 microliters wash buffer 2/3 and dried. […]
For PCR analysis, the kit utilized was TaqMan® Fast Universal Master Mix (2×), No AmpErase® UNG. […] At least one housekeeping mRNA Expression Assay (e.g. GAPDH; Mm03302249_g1 or Hs02758991_g1) was included in each set of RNA samples to be assessed. […]

`O=C1NCCN1CC(O)Cn1c2ccc(F)cc2c2cc(F)ccc21` (stereo not shown) [Compound 72, 1-(3-(3,6-difluoro-9H-carbazol-9-yl)-2-hydroxypropyl)imidazolidin-2-one]: the “Dbp gene expression in whole blood” value is listed as “statistically significant suppression”.

The values are drawn from patent US10759777B2, “Carbazole-containing amides, carbamates, and ureas as cryptochrome modulators” (Synchronicity Pharma, Inc., priority 2014, dated 2020).
